Results as given in patent US10988524B2, “Modified relaxin B chain peptides and their therapeutic use” (priority 2018, dated 2021).
Several values for one entry are separate records, joined by “and”; a condition that tells them apart may be missing. Identical values can stand only once. Non-standard residues stand in square brackets, D forms with d. Residues, ends and D or L forms follow the SMILES beside them. αMeK = C[C@](N)(CCCCN)C(=O)O; Nle = CCCC[C@H](N)C(=O)O; Aib = CC(C)(N)C(=O)O

Target: T1, RXFP1 (Homo sapiens, UniProt Q9HBX9)
T1 sequence (Q9HBX9 1-757): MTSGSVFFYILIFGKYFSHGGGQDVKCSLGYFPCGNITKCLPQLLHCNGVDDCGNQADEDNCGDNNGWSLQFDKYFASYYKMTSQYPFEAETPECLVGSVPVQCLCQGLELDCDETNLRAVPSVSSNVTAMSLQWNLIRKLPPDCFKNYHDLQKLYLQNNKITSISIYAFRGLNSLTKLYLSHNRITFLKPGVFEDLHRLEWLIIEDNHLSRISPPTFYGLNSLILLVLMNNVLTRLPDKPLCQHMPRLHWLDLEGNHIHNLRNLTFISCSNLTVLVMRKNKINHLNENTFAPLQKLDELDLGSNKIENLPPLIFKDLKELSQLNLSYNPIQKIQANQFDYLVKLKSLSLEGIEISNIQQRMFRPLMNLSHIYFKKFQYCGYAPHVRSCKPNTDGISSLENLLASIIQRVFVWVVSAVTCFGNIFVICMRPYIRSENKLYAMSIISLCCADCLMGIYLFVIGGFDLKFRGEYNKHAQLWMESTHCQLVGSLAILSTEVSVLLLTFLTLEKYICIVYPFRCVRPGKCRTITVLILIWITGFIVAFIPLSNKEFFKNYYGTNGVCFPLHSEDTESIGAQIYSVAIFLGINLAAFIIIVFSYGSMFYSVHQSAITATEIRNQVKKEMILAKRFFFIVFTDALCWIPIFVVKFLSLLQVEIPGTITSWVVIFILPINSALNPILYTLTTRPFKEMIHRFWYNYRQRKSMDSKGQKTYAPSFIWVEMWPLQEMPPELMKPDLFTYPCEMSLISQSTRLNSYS
Experiment: OVCAR5 cAMP assay (RXFP1 agonist activity, HTRF)
Conditions: for Emax: OVCAR-5, read-out: cAMP assay in OVCAR 5 cells Emax, maximal intracellular cAMP relative to H2-relaxin in the same test occasion; for EC50: cAMP assay in OVCAR 5 cells EC50 (nM), OVCAR5 cells expressing endogenous RXFP1, cAMP by HTRF, 30 min at 37° C., 1 mM IBMX

Row | SMILES | Emax | EC50
1 | CCCC[C@H](NC(=O)CNC(=O)[C@H](CCC(=O)O)NC(=O)C(C)(C)NC(=O)C(C)(C)NC(=O)[C@@H](NC(=O)[C@H](CCCCNC(C)=O)NC(=O)[C@H](C)NC(=O)[C@H](CCCNC(=N)N)NC(=O)[C@@H](NC(=O)[C@H](CCCCN)NC(=O)[C@H](CCC(=O)O)NC(=O)[C@H](CCCNC(=N)N)NC(=O)CNC(=O)[C@H](CCC(=O)O)NC(=O)[C@H](CC(C)C)NC(C)=O)C(C)C)[C@@H](C)CC)C(=O)N[C@@H](CO)C(=O)N[C@H](C(=O)N[C@@H](Cc1c[nH]c2ccccc12)C(=O)N[C@@H](CO)C(=O)N[C@@H](CCCCNC(C)=O)C(=O)N[C@@H](CCCNC(=N)N)C(=O)N[C@@H](CCCCN)C(=O)N[C@@H](CCCCN)C(N)=O)[C@@H](C)O [compound 25] (Ac-LEGREKVRAK(Ac)I[Aib][Aib]EG[Nle]STWSK(Ac)RKK-NH2) | 100% | ≤ 5 nM
2 | CCCC[C@H](NC(=O)CNC(=O)[C@H](CCC(=O)O)NC(=O)C(C)(C)NC(=O)C(C)(C)NC(=O)[C@@H](NC(=O)C(C)(C)NC(=O)[C@H](C)NC(=O)[C@H](CCCNC(=N)N)NC(=O)[C@@H](NC(=O)[C@H](CCCCN)NC(=O)[C@H](CCC(=O)O)NC(=O)[C@H](CCCNC(=N)N)NC(=O)CNC(=O)[C@H](CCC(=O)O)NC(=O)[C@H](CC(C)C)NC(C)=O)C(C)C)[C@@H](C)CC)C(=O)N[C@@H](CO)C(=O)N[C@H](C(=O)N[C@@H](Cc1c[nH]c2ccccc12)C(=O)N[C@@H](CO)C(=O)N[C@@](C)(CCCCN)C(=O)N[C@@H](CCCNC(=N)N)C(=O)N[C@@H](CCCCN)C(=O)N[C@@H](CCCCN)C(N)=O)[C@@H](C)O [compound 20] (Ac-LEGREKVRA[Aib]I[Aib][Aib]EG[Nle]STWS[αMeK]RKK-NH2) | 97% | ≤ 10 nM and ≤ 5 nM and 1.8 nM
3 | CCCC[C@H](NC(=O)CNC(=O)[C@H](CCC(=O)O)NC(=O)C(C)(C)NC(=O)C(C)(C)NC(=O)[C@@H](NC(=O)[C@H](CCCCNC(C)=O)NC(=O)[C@H](C)NC(=O)[C@H](CCCNC(=N)N)NC(=O)[C@@H](NC(=O)[C@H](CCCCN)NC(=O)[C@H](CCC(=O)O)NC(=O)[C@H](CCCNC(=N)N)NC(=O)CNC(=O)[C@H](CCC(=O)O)NC(=O)[C@H](CC(C)C)NC(C)=O)C(C)C)[C@@H](C)CC)C(=O)N[C@@H](CO)C(=O)N[C@H](C(=O)N[C@@H](Cc1c[nH]c2ccccc12)C(=O)N[C@@H](CO)C(=O)NC(C)(C)C(=O)N[C@@H](CCCNC(=N)N)C(=O)N[C@@H](CCCCN)C(=O)N[C@@H](CC(C)C)C(N)=O)[C@@H](C)O [compound 32] (Ac-LEGREKVRAK(Ac)I[Aib][Aib]EG[Nle]STWS[Aib]RKL-NH2) | 95% | 
4 | CCCC[C@H](NC(=O)CNC(=O)[C@H](CCC(=O)O)NC(=O)[C@@H](NC(=O)C(C)(C)NC(=O)[C@@H](NC(=O)[C@H](CCC(N)=O)NC(=O)[C@H](C)NC(=O)[C@H](CCCNC(=N)N)NC(=O)[C@@H](NC(=O)[C@H](CCCCN)NC(=O)[C@H](CCC(=O)O)NC(=O)[C@H](CCCNC(=N)N)NC(=O)CNC(=O)[C@H](CCC(=O)O)NC(=O)[C@H](CC(C)C)NC(C)=O)C(C)C)[C@@H](C)CC)[C@@H](C)CC)C(=O)N[C@@H](CO)C(=O)N[C@@H](CCCCN)C(=O)N[C@@H](Cc1c[nH]c2ccccc12)C(=O)N[C@@H](CO)C(=O)N[C@@H](CCCCN)C(=O)N[C@@H](CCCNC(=N)N)C(=O)N[C@@H](CCCCN)C(=O)N[C@@H](CCCCN)C(N)=O [compound 8] (Ac-LEGREKVRAQI[Aib]IEG[Nle]SKWSKRKK-NH2) | 103% | 
5 | CC[C@H](C)[C@H](NC(=O)[C@H](CCC(N)=O)NC(=O)[C@H](C)NC(=O)[C@H](CCCNC(=N)N)NC(=O)[C@@H](NC(=O)[C@H](CCCCN)NC(=O)[C@H](CCC(=O)O)NC(=O)[C@H](CCCNC(=N)N)NC(=O)CNC(=O)[C@H](CCC(=O)O)NC(=O)[C@@H](N)CC(C)C)C(C)C)C(=O)NC(C)(C)C(=O)N[C@H](C(=O)N[C@@H](CCC(=O)O)C(=O)NCC(=O)N[C@@H](CCSC)C(=O)N[C@@H](CO)C(=O)N[C@@H](CCCCN)C(=O)N[C@@H](Cc1c[nH]c2ccccc12)C(=O)N[C@@H](CO)C(=O)N[C@@H](CCCCN)C(=O)N[C@@H](CCCNC(=N)N)C(=O)N[C@@H](CCCCN)C(=O)N[C@@H](CCCCN)C(N)=O)[C@@H](C)CC [compound 6] (H-LEGREKVRAQI[Aib]IEGMSKWSKRKK-NH2) | 97% | 
6 | CC[C@H](C)[C@H](NC(=O)[C@H](CCC(N)=O)NC(=O)C(C)(C)NC(=O)[C@H](CCCNC(=N)N)NC(=O)[C@@H](NC(=O)[C@H](CCCCN)NC(=O)[C@H](CCC(=O)O)NC(=O)[C@H](CCCNC(=N)N)NC(=O)CNC(=O)[C@H](CCC(=O)O)NC(=O)[C@H](CC(C)C)NC(C)=O)C(C)C)C(=O)NC(C)(C)C(=O)N[C@H](C(=O)N[C@@H](CCC(=O)O)C(=O)NCC(=O)N[C@@H](CCSC)C(=O)N[C@@H](CO)C(=O)N[C@@H](CCCCN)C(=O)N[C@@H](Cc1c[nH]c2ccccc12)C(=O)N[C@@H](CO)C(=O)N[C@@H](CCCCN)C(=O)N[C@@H](CCCNC(=N)N)C(=O)N[C@@H](CCCCN)C(=O)N[C@@H](CCCCN)C(N)=O)[C@@H](C)CC [compound 7] (Ac-LEGREKVR[Aib]QI[Aib]IEGMSKWSKRKK-NH2) | 101% | 
7 | CCCC[C@H](NC(=O)CNC(=O)[C@H](CCC(=O)O)NC(=O)C(C)(C)NC(=O)C(C)(C)NC(=O)[C@@H](NC(=O)[C@H](CCC(N)=O)NC(=O)[C@H](C)NC(=O)[C@H](CCCNC(=N)N)NC(=O)[C@@H](NC(=O)[C@H](CCCCN)NC(=O)[C@H](CCC(=O)O)NC(=O)[C@H](CCCNC(=N)N)NC(=O)CNC(=O)[C@H](CCC(=O)O)NC(=O)[C@H](CC(C)C)NC(C)=O)C(C)C)[C@@H](C)CC)C(=O)N[C@@H](CO)C(=O)N[C@H](C(=O)N[C@@H](Cc1c[nH]c2ccccc12)C(=O)N[C@@H](CO)C(=O)NC(C)(C)C(=O)N[C@@H](CCCNC(=N)N)C(=O)N[C@@H](CCCCN)C(=O)N[C@@H](CCCCNC(C)=O)C(N)=O)[C@@H](C)O [compound 21] (Ac-LEGREKVRAQI[Aib][Aib]EG[Nle]STWS[Aib]RKK(Ac)-NH2) | 96% | 32.8 nM
8 | CC[C@H](C)[C@H](NC(=O)C(C)(C)NC(=O)[C@H](C)NC(=O)[C@H](CCCNC(=N)N)NC(=O)[C@@H](NC(=O)[C@H](CCCCN)NC(=O)[C@H](CCC(=O)O)NC(=O)[C@H](CCCNC(=N)N)NC(=O)CNC(=O)[C@H](CCC(=O)O)NC(=O)[C@H](CC(C)C)NC(C)=O)C(C)C)C(=O)NC(C)(C)C(=O)NC(C)(C)C(=O)N[C@@H](CCC(=O)O)C(=O)NCC(=O)N[C@@H](CCSC)C(=O)N[C@@H](CO)C(=O)N[C@H](C(=O)N[C@@H](Cc1c[nH]c2ccccc12)C(=O)N[C@@H](CO)C(=O)NC(C)(C)C(=O)N[C@@H](CCCNC(=N)N)C(N)=O)[C@@H](C)O [compound 43] (Ac-LEGREKVRA[Aib]I[Aib][Aib]EGMSTWS[Aib]R-NH2) | 104% | 
9 | CCCC[C@H](NC(=O)CNC(=O)[C@H](CCC(=O)O)NC(=O)C(C)(C)NC(=O)C(C)(C)NC(=O)[C@@H](NC(=O)[C@H](C)NC(=O)[C@H](C)NC(=O)[C@H](CCCNC(=N)N)NC(=O)[C@@H](NC(=O)[C@H](CCCCN)NC(=O)[C@H](CCC(=O)O)NC(=O)[C@H](CCCNC(=N)N)NC(=O)CNC(=O)[C@H](CCC(=O)O)NC(=O)[C@H](CC(C)C)NC(C)=O)C(C)C)[C@@H](C)CC)C(=O)N[C@@H](CO)C(=O)N[C@H](C(=O)N[C@@H](Cc1c[nH]c2ccccc12)C(=O)N[C@@H](CO)C(=O)NC(C)(C)C(=O)N[C@@H](CCCNC(=N)N)C(=O)N[C@@H](CCCCN)C(=O)N[C@@H](CCCCN)C(N)=O)[C@@H](C)O [compound 17] (Ac-LEGREKVRAAI[Aib][Aib]EG[Nle]STWS[Aib]RKK-NH2) | 90% | 
